Data reported in patent US20040146585A1, “Use of thiol-based compositions in treating chemotherapeutic agent-induced thrombocytopenia” (Oregon Health & Science University, priority 2002, published 2004).

Tested on: patients with malignant brain tumors
Source text: Blood/bone marrow toxicity data from patients with malignant brain tumors treated with carboplatin-based regimens with or without delayed high-dose STS were graded in accordance with National Cancer Institute Common Toxicity Criteria (NCI CTC) (version 2.0).
Treatment Regimen. Patients with a variety of malignant brain tumor histologies, including metastases to the brain, were eligible for treatment. Patients who had previously undergone central nervous system or systemic radiotherapy or chemotherapy were eligible, however 2 weeks must have elapsed since prior radiotherapy and 4 weeks since prior chemotherapy. Patients were required to have normal hematologic, renal and hepatic function.
The BBBD procedure was done on two consecutive days, approximately every 4 weeks for up to 12 months. Mannitol (25%) was infused (5-10 cc/sec) into the appropriate internal carotid or vertebral artery, depending on tumor location, for 30 seconds. The combination chemotherapy regimen consisted of cyclophosphamide (330 Mg/m^2/day×2 days; total dose, 660 mg/m^2) (i.v.) beginning approximately 20 minutes before the mannitol infusion, carboplatin (200 mg/m^2/day×2 days; total dose, 400 Mg/m^2) (i.a.) administered over 10 minutes, within 5 minutes after the mannitol, and etoposide (i.v.) or etoposide phosphate (200 mg/m^2/day×2 days; total dose, 400 mg/m^2) (i.a. or i.v.). Patients received granulocyte-colony stimulating factor (G-CSF) (5 mcg/kg) for 10 days after chemotherapy or until the absolute neutrophil count was greater than 1000/μL.
STS was available as a 25% (250 mg/ml) solution. Dose was determined (16 or 20 grams/m^2) and mixed with an equivalent amount of sterile water (1 ml: 1 ml) for infusion. […] The most commonly used regimen was benadryl (12.5 mg), dexamethasone (6 mg), and if needed, ativan (0.5-1.0 mg), i.v. 30-45 minutes before STS.
STS was administered i.v. over about 15 minutes. The number of STS doses the patient received depended on the patient baseline hearing status, and whether they experienced an ototoxic shift during treatment. Patients treated with BBBD/STS received STS in one dose (20 grams/m^2) 4 hours after carboplatin (n=10), or two doses (20 grams/m^2 at 4 hrs, and 16 grams/m^2 at 8 hours) after carboplatin (n=19).
Because malignant brain tumor patients are at risk for intracerebral hemorrhage, patients underwent platelet transfusion when platelet count was <20×10^3/mm^3. Following a platelet transfusion, on subsequent chemotherapy courses the carboplatin dose was reduced 25%.
Data Analysis. Blood/bone marrow toxicity data were graded in accordance with NCI CTC and analyzed in the following […] treatment groups: 1) patients treated with carboplatin, cyclophosphamide and etoposide with BBBD and without STS, and 2) patients treated with carboplatin, cyclophosphamide and etoposide phosphate with BBBD and with STS. For both groups, blood/bone marrow toxicity data from all carboplatin-based courses of patients in treatment were included in the analysis.
First, platelet nadirs were plotted for each subject and as means for each of the three study groups. For group comparisons, a mixed, repeated measures analysis of variance (ANOVA) model was fit using the parameter platelet nadir for each course as the measure. Gender, […] (≧70 or not), prior chemotherapy, prior radiation, and age at first course were included as covariates. Several other events were examined including grade 3 or 4 platelet toxicity as defined by NCI CTC, platelet transfusion, and the need for hematologically driven chemotherapy dose reduction. […] For present/absent outcomes as these, a mixed model repeated measures analysis (using the present/absent outcomes as the best response for each course) was performed. The mixed model ANOVA's using presence/absence of the outcome was adjusted for the covariates listed above.
Analyses were performed using Version 8.01 of SAS® for Windows.

Structure (SMILES): O=S([O-])([O-])=S.[Na+].[Na+] [STS, sodium thiosulfate]
- adverse effects caused by high-dose STS (16 or 20 grams/m^2 i.v., National Cancer Institute CTC, version 2.0): transient hypematremia, hypertension, and controllable grade II nausea and vomiting
- patients requiring dose reduction of carboplatin (BBBD with STS): no patients
- Platelet Nadir <20 × 10^3/mm^3, percent of carboplatin courses (BBBD/STS, 129 courses): 1% courses
- Platelet Transfusions, percent of carboplatin courses (BBBD/STS, 129 courses): 2% courses
- Dose Reductions of carboplatin, percent of patients (BBBD/STS, n = 29): 0% pts
- Platelet Transfusions, percent of patients (BBBD/STS, n = 29): 7% pts
- Platelet Nadir <20 × 10^3/mm^3, percent of patients (BBBD/STS, n = 29, carboplatin, cyclophosphamide, etoposide phosphate, STS i.v. 20 grams/m^2 at 4 h (and 16 grams/m^2 at 8 h) after carboplatin): 4% pts
- grade 3 or 4 white blood cell toxicity, treatment groups with vs without STS (NCI CTC): no significant difference among treatment groups
- grade 3 or 4 platelet toxicity, treatment groups with vs without STS (NCI CTC, adjusted for age at first carboplatin treatment, p=0.14): no significant difference among the treatment groups
- rates of dose reduction of carboplatin, treatment groups with vs without STS (Pearson chi-square test): difference between the treatment groups was significant
- platelet transfusion (present or absent), treatment groups with vs without STS (mixed model, p=0.035): significant difference between the treatment groups
- platelet nadir <20×10^3/mm^3 (binary), treatment groups with vs without STS (mixed-model analysis of variance controlling for KPS≧70 and prior chemotherapy, p=0.0002): significant difference among the two treatment groups
- estimated probabilities of platelet transfusions (patients treated with BBBD and STS, mixed model estimate (22.4% for BBBD without STS)): 9.0%
